Target: Human immunodeficiency virus type 1 protease (Human immunodeficiency virus 1, UniProt Q72874)
Test: ChEBML_159632
Description: Inhibitory concentration required to inhibit HIV-1 protease was determined

SMILES	Ki [µM]
CC(C)(C)OC(=O)N[C@H](C(=O)C(=C=N)c1ccc([N+](=O)[O-])cc1)C(=O)C(N)c1ccccc1 (some centres not stated)	30
N=C=C(C(=O)[C@H](Cc1ccccc1)NC(=O)OCc1ccccc1)c1ccc([N+](=O)[O-])cc1	30

From BindingDB's records for doi:10.1016/S0960-894X(00)80308-X (1993)
